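In this assay, cells in 96-well plates receive the compound at five concentrations for 48 hours. Endpoints are linearly interpolated between the surrounding concentrations. Abbreviation: GI50, concentration required for 50% inhibition of growth.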 The source made the active and inactive calls. No stated cut-off is given here; in the data, active = GI50 up to about 1.1 µM and inactive = higher.
Key:
Test in all cases: NCI tumour cell line growth inhibition, 48 h
[1] = test system: 786-0
[2] = test system: A498
[3] = test system: A549
[4] = test system: ACHN
[5] = test system: BT-549
[6] = test system: CAKI-1
[7] = test system: CCRF-CEM
[8] = test system: COLO 205
[9] = test system: DU-145
[10] = test system: EKVX
[11] = test system: HCC 2998
[12] = test system: HCT-116
[13] = test system: HCT-15
[14] = test system: HL-60
[15] = test system: HOP-62
[16] = test system: HT-29
[17] = test system: Hs-578T
[18] = test system: IGROV-1
[19] = test system: K562
[20] = test system: KM12
[21] = test system: LOX IMVI
[22] = test system: M14
[23] = test system: MCF7
[24] = test system: MDA-MB-231
[25] = test system: MDA-MB-435
[26] = test system: MDA-N
[27] = test system: MOLT-4
[28] = test system: Malme-3M
[29] = test system: NCI-H226
[30] = test system: NCI-H23
[31] = test system: NCI-H460
[32] = test system: NCI-H522
[33] = test system: NCI/ADR-RES
[34] = test system: OVCAR-3
[35] = test system: OVCAR-4
[36] = test system: OVCAR-5
[37] = test system: OVCAR-8
[38] = test system: PC-3
[39] = test system: RPMI-8226
[40] = test system: RXF 393
[41] = test system: SF-268
[42] = test system: SF-295
[43] = test system: SF-539
[44] = test system: SK-MEL-2
[45] = test system: SK-MEL-5
[46] = test system: SK-OV-3
[47] = test system: SN12C
[48] = test system: SNB-19
[49] = test system: SNB-75
[50] = test system: SR
[51] = test system: SW-620
[52] = test system: T47D
[53] = test system: TK-10
[54] = test system: U-251
[55] = test system: UACC-257
[56] = test system: UACC-62
[57] = test system: UO-31

Measured: GI50

CC(C)(C)[Si](C)(C)OCC1OC(n2cc(F)c(=O)[nH]c2=O)CC1O[Si](C)(C)C(C)(C)C (configuration not stated)
7.24 µM: [13]
inactive: [1] 8.63 µM | [2] 6.87 µM | [3] 10.5 µM | [4] 10.1 µM | [5] 5.43 µM | [6] 12.5 µM | [7] 4.17 µM | [8] 4.25 µM | [9] 3.46 µM | [10] 8.04 µM | [11] 1.72 µM | [12] 7.66 µM | [14] 3.78 µM | [15] 13.2 µM | [16] 7.19 µM | [17] 11.1 µM | [18] 6.71 µM | [19] 4.14 µM | [20] 4.19 µM | [21] 5.79 µM | [22] 13.3 µM | [23] 5.01 µM | [24] 7.5 µM | [25] 12 µM | [26] 6.21 µM | [27] 3.98 µM | [28] 16.4 µM | [29] 19.4 µM | [30] 6.53 µM | [31] 2.4 µM | [32] 3.29 µM | [33] 16 µM | [34] 15.2 µM | [35] 6.46 µM | [36] 17 µM | [37] 16.1 µM | [38] 3.16 µM | [39] 3.5 µM | [40] 4.42 µM | [41] 14.5 µM | [42] 6.97 µM | [43] 13.6 µM | [44] 12.1 µM | [45] 3.27 µM | [46] 14 µM | [47] 2.89 µM | [48] 12.4 µM | [49] 4.03 µM | [50] 3.1 µM | [51] 9.93 µM | [53] 2.84 µM | [54] 8.65 µM | [55] 4.02 µM | [56] 5.14 µM | [57] 10.8 µM
active: [52] 1.11 µM
